Consider eight compounds from ChEMBL document CHEMBL3286140, “Synthesis and biological evaluation of salpichrolide analogs as antiestrogenic agents” (Eur J Med Chem, 2014).

Calls of active or inactive are those of the source. The rule behind the calls is not given here.

In data set [1] the test system is MCF7. The data set can be described thus: Inhibition of 17beta-estradiol-induced in ERalpha positive human MCF7 cells proliferation assessed as [3H]-thymidine incorporation after 72 hrs by liquid scintillation counting. The data set is classed as functional, cell-based. Background: Incorporation of labelled thymidine or its analogues reports DNA synthesis.
The subject of data set [2] is MCF7. The data set can be described thus: Inhibition of 17beta-estradiol-induced in ERalpha positive human MCF7 cells proliferation assessed as [3H]-thymidine incorporation at 10 nM after 72 hrs by liquid scintillation counting. The data set is classed as functional, cell-based.
The subject of data set [3] is MDA-MB-231. The data set can be described thus: Cytotoxicity against ERalpha negative human MDA-MB-231 cells at 10 nM and 1 uM. It is filed as cell-based. Conditions: mda-mb-231, 0.01 µM.
In data set [4] the test system is MCF7. The data set can be described thus: Cytotoxicity against ERalpha positive human MCF7 cells at 10 nM and 1 uM. It is filed as cell-based. Conditions: mcf7, 0.01 µM.
In data set [5] the test system is MCF7. Briefly: Inhibition of 17beta-estradiol-induced in ERalpha positive human MCF7 cells proliferation assessed as [3H]-thymidine incorporation at 100 nM after 72 hrs by liquid scintillation counting. The data set is classed as functional, cell-based.
Data set [6] has as its system MDA-MB-231. The data set can be described thus: Inhibition of 17beta-estradiol-induced in ERalpha negative human MDA-MB-231 cells proliferation assessed as [3H]-thymidine incorporation after 72 hrs by liquid scintillation counting. The data set is classed as functional, cell-based.
In data set [7] the test system is MCF7. Briefly: Inhibition of 17beta-estradiol-induced in ERalpha positive human MCF7 cells proliferation assessed as [3H]-thymidine incorporation at 1 uM after 72 hrs by liquid scintillation counting. The data set is classed as functional, cell-based.

On to `C[C@]12CC[C@@H]3c4ccc(O)cc4C[C@@H](CCCCCCCCC[S+]([O-])CCCC(F)(F)C(F)(F)F)[C@H]3[C@@H]1CC[C@@H]2O` (stereo not given in full) [FULVESTRANT], for which, in the data set with MCF7 [1], the IC50 (as a rule, the point on the concentration scale where inhibition reaches its midpoint) is 1.9 nM. For the same compound, in the data set with MCF7 [2], the inhibition entry is “Active”.
Consider `C[C@@H](c1cc(O)c2c(c1)CC[C@H]1[C@H]2C[C@@H]2O[C@@]23CC=CC(=O)[C@]13C)[C@@H]1C[C@@H]2O[C@@H]2[C@H](O)O1` [SALPICHROLIDE G], for which the Activity result in the data set with MDA-MB-231 [3] and in the data set with MCF7 [4] was “Toxic” in each case. Also, the IC50 with MCF7 [1] was 140 nM.
In the case of `CC(=O)c1ccc2c(c1)CC[C@H]1[C@H]2CC[C@H]2C[C@@H](O)CC[C@@]21C`, the inhibition result in the data set with MCF7 [5] was “Active”. The inhibition entry in the data set with MDA-MB-231 [6] was “inactive”. The IC50 in the data set on MCF7 [1] was determined as 330 nM.
On to `C[C@@H](c1ccc2c(c1)CC[C@H]1[C@H]2C[C@@H]2O[C@@]23CC=C[C@H](O)[C@]13C)[C@H]1C[C@]2(C)O[C@]2(C)[C@H](O)O1`, for which, in the data set with MCF7 [1], the IC50 was found to be 18 nM.
`CC(=O)c1ccc2c(c1)CC[C@H]1[C@H]2C[C@H]2O[C@]23C[C@@H](O)CC[C@]13C`: the inhibition entry in the data set with MCF7 [7] is “inactive”.
`CC(=O)c1ccc2c(c1)CC[C@H]1[C@H]2C[C@@H]2O[C@@]23C[C@@H](O)CC[C@]13C`: the inhibition entry with MCF7 [1] is “inactive”.
On to `CC(=O)c1ccc2c(c1)CC[C@H]1[C@H]2CC[C@H]2CC=CC(=O)[C@@]21C`, for which the inhibition result in the data set with MCF7 [5] was “Active”. Besides, in the data set on MDA-MB-231 [6], the inhibition result is “inactive”. Besides, in the data set with MCF7 [1], the IC50 was 50 nM.
Regarding `CC(=O)c1ccc2c(c1)CC[C@H]1[C@H]2CC[C@H]2CC=C[C@H](O)[C@@]21C`, the inhibition result in the data set on MCF7 [7] was “inactive”.
